Measured values: ChEMBL document CHEMBL1817560, “Selectivity of kinase inhibitor fragments” (J Med Chem, 2011)

Tests used:
[1] = target: Tyrosine-protein kinase Fes/Fps (Homo sapiens) (UniProt P07332); test: Inhibition of FES expressed in Escherichia coli or baculovirus-infected insect cells using ATP as substrate at 400 uM by fluorescence polarization assay
[2] = target: Epidermal growth factor receptor (Homo sapiens) (UniProt P00533); test: Inhibition of EGFR expressed in Escherichia coli or baculovirus-infected insect cells at 400 uM by TR-FRET assay
[3] = target: Aurora kinase B (Homo sapiens) (UniProt Q96GD4); test: Inhibition of AurB expressed in Escherichia coli or baculovirus-infected insect cells at 400 uM by IMAP assay
[4] = target: Tyrosine-protein kinase SYK (Homo sapiens, UniProt P43405); test: Inhibition of SYK expressed in Escherichia coli or baculovirus-infected insect cells at 667 uM by TR-FRET assay
[5] = target: T1, Aurora kinase A (Homo sapiens) (UniProt O14965); test: Inhibition of AurA expressed in Escherichia coli or baculovirus-infected insect cells at 400 uM by IMAP assay
T1 sequence (whole entry): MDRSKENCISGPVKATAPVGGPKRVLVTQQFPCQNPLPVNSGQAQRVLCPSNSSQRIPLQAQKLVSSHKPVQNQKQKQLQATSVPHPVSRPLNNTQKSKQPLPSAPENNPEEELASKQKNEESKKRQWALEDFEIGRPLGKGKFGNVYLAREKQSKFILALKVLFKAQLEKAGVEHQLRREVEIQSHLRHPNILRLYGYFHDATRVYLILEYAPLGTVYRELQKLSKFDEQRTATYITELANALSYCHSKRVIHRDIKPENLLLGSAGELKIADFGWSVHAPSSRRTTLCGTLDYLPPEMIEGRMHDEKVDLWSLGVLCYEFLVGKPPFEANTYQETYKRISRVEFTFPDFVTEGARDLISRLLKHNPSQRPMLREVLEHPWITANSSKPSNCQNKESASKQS

[6] = target: T2, Serine/threonine-protein kinase Sgk1 (Homo sapiens) (UniProt O00141); test: Inhibition of SGK1 expressed in Escherichia coli or baculovirus-infected insect cells at 400 uM by IMAP assay
T2 sequence (whole entry): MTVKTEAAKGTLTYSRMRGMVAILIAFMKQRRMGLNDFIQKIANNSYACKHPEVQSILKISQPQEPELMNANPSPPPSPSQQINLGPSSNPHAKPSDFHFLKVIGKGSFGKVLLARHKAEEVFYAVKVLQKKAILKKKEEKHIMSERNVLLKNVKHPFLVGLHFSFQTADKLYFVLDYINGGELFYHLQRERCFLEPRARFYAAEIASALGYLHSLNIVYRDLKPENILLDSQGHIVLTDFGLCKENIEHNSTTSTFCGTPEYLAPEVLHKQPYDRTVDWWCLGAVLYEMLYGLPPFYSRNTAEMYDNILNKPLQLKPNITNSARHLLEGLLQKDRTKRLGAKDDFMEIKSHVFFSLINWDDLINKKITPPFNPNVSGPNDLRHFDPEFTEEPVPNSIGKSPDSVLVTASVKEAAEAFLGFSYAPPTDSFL

[7] = target: Receptor-interacting serine/threonine-protein kinase 2 (Homo sapiens) (UniProt O43353); test: Inhibition of RIP2 expressed in Escherichia coli or baculovirus-infected insect cells at 400 uM by fluorescence polarization assay
[8] = target: Receptor tyrosine-protein kinase erbB-2 (Homo sapiens) (UniProt P04626); test: Inhibition of ErbB2 expressed in Escherichia coli or baculovirus-infected insect cells at 400 uM by TR-FRET assay
[9] = target: Phosphatidylinositol 4,5-bisphosphate 3-kinase catalytic subunit gamma isoform (Homo sapiens) (UniProt P48736); test: Inhibition of PI3Kgamma expressed in Escherichia coli or baculovirus-infected insect cells at 667 uM by fluorescence polarization assay
[10] = target: Phosphatidylinositol 4,5-bisphosphate 3-kinase catalytic subunit alpha isoform (Homo sapiens) (UniProt P42336); test: Inhibition of PI3Kalpha expressed in Escherichia coli or baculovirus-infected insect cells using gamma-[33P]ATP at 400 uM by scintillation proximity assay
[11] = target: T3, Inhibitor of nuclear factor kappa-B kinase subunit beta (Homo sapiens) (UniProt O14920); test: Inhibition of IKK-beta expressed in Escherichia coli or baculovirus-infected insect cells at 667 uM by TR-FRET assay
T3 sequence (whole entry): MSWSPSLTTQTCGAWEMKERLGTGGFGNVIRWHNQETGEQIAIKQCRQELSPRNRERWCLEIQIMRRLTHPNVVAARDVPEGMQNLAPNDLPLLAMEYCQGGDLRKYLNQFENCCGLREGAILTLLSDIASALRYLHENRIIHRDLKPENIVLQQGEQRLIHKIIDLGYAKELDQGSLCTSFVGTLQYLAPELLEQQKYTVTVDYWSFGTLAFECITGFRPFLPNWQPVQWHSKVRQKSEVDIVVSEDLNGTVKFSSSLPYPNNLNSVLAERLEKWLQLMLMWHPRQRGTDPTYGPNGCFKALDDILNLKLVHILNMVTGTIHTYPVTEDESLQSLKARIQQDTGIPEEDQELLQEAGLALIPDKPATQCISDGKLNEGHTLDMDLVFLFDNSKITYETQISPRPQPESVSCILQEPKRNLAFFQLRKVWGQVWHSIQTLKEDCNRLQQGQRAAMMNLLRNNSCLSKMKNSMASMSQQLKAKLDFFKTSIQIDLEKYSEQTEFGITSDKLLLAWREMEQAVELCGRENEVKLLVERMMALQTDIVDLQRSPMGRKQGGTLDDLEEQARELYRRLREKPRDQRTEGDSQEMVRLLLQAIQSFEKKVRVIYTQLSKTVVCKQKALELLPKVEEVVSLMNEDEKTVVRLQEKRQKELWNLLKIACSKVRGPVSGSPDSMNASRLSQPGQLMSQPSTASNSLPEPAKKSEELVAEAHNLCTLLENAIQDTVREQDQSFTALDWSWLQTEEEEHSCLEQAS

[12] = target: Rho-associated protein kinase 1 (Homo sapiens) (UniProt Q13464); test: Inhibition of ROCK1 expressed in Escherichia coli or baculovirus-infected insect cells at 400 uM by IMAP assay
[13] = target: 3-phosphoinositide-dependent protein kinase 1 (Homo sapiens) (UniProt O15530); test: Inhibition of PDK1 expressed in Escherichia coli or baculovirus-infected insect cells using gamma-[33P]ATP at 400 uM by scintillation proximity assay
[14] = target: Serine/threonine-protein kinase PAK 2 (Homo sapiens) (UniProt Q13177); test: Inhibition of PAK2 expressed in Escherichia coli or baculovirus-infected insect cells at 400 uM by IMAP assay
[15] = target: Focal adhesion kinase 1 (Homo sapiens) (UniProt Q05397); test: Inhibition of FAK expressed in Escherichia coli or baculovirus-infected insect cells at 400 uM by TR-FRET assay
[16] = target: RAC-beta serine/threonine-protein kinase (Homo sapiens) (UniProt P31751); test: Inhibition of AKT2 expressed in Escherichia coli or baculovirus-infected insect cells using gamma-[33P]ATP at 400 uM by scintillation proximity assay

Sequence of Epidermal growth factor receptor (Homo sapiens) (P00533 whole entry): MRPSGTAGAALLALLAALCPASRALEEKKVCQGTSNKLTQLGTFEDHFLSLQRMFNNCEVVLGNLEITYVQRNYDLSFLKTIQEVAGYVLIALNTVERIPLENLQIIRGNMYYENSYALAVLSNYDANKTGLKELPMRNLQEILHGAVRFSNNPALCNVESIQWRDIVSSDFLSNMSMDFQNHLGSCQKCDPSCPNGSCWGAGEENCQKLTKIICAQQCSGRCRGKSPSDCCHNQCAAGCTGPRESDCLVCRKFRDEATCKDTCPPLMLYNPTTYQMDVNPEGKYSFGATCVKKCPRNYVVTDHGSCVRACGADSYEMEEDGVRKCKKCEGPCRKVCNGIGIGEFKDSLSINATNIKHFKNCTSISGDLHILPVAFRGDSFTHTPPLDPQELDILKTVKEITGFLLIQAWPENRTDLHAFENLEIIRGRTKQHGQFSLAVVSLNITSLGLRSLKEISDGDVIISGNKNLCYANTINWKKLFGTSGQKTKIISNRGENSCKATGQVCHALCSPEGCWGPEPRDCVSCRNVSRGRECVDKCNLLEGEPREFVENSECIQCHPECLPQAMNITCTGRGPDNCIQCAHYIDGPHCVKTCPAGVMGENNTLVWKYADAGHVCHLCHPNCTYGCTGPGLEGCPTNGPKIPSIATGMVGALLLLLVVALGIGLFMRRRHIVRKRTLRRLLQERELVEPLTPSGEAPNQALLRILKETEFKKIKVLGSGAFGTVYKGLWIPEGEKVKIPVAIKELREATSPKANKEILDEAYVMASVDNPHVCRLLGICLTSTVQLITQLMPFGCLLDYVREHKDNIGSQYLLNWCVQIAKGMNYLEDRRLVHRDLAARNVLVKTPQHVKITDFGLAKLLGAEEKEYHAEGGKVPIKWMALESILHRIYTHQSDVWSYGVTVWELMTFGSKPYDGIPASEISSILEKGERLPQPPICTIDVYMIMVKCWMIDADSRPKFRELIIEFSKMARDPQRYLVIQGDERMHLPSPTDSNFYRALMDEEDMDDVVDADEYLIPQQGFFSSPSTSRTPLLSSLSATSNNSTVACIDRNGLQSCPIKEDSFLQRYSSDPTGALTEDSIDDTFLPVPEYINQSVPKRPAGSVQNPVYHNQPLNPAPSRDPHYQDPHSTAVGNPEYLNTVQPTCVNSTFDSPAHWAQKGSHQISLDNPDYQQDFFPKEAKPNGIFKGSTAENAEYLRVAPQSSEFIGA
Sequence of Receptor tyrosine-protein kinase erbB-2 (Homo sapiens) (P04626 whole entry, canonical isoform): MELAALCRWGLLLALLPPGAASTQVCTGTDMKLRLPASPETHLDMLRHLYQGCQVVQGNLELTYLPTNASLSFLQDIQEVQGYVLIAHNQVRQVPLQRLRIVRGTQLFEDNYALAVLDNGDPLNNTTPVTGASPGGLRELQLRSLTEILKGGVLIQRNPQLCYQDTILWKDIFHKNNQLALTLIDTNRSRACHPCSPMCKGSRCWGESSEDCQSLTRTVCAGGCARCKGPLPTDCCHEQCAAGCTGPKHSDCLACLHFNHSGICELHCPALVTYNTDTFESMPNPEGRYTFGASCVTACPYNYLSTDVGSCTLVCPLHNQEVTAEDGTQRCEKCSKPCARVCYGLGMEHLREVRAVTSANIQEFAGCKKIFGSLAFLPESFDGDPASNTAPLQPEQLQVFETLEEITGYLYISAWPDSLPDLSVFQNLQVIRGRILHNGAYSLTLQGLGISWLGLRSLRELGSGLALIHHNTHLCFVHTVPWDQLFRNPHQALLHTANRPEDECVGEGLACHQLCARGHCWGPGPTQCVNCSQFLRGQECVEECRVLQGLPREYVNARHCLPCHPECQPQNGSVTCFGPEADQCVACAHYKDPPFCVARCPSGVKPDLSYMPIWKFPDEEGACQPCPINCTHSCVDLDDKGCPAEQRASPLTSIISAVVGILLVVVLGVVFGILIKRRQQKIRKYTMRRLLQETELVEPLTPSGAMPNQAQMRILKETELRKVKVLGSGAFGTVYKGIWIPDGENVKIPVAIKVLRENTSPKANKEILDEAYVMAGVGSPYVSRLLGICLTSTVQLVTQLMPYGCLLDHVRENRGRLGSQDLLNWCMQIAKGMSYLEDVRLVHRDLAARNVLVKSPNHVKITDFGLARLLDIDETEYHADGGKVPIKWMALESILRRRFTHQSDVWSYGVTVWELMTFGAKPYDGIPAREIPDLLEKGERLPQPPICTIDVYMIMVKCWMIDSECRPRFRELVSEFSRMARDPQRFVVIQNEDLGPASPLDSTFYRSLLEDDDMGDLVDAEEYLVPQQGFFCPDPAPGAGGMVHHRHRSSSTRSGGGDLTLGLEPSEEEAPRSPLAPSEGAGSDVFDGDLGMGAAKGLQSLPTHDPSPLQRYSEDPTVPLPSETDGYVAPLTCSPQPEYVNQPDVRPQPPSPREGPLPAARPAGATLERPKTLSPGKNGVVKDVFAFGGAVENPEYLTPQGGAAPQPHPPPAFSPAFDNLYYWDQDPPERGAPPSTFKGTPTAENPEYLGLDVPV
Sequence of 3-phosphoinositide-dependent protein kinase 1 (Homo sapiens) (O15530 whole entry, looked up): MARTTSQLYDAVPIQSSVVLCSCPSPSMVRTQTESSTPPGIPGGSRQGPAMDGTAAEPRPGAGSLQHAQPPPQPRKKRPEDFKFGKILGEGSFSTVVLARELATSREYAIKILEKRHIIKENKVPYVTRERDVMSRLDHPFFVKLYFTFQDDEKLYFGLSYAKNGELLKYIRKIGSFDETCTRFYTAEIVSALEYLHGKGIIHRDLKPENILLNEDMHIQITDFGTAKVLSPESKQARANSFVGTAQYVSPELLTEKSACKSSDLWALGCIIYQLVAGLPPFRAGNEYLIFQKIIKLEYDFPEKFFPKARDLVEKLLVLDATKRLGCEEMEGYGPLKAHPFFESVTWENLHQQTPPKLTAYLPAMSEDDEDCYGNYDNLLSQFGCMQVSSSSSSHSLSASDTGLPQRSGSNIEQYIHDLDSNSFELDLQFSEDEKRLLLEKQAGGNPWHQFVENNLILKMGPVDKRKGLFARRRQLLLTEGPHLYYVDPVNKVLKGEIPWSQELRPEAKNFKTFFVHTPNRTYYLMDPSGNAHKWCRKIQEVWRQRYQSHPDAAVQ
Sequence of Aurora kinase B (Homo sapiens) (Q96GD4 whole entry): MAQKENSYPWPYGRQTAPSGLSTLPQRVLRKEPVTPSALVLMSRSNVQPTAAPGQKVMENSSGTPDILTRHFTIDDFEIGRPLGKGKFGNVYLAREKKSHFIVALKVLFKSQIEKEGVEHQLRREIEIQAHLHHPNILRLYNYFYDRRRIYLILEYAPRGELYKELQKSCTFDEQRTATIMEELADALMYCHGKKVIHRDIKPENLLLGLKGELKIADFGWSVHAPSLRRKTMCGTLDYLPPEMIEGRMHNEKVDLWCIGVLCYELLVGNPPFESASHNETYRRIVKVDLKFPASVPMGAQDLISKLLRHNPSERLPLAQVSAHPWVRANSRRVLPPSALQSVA
Sequence of Receptor-interacting serine/threonine-protein kinase 2 (Homo sapiens) (O43353 whole entry): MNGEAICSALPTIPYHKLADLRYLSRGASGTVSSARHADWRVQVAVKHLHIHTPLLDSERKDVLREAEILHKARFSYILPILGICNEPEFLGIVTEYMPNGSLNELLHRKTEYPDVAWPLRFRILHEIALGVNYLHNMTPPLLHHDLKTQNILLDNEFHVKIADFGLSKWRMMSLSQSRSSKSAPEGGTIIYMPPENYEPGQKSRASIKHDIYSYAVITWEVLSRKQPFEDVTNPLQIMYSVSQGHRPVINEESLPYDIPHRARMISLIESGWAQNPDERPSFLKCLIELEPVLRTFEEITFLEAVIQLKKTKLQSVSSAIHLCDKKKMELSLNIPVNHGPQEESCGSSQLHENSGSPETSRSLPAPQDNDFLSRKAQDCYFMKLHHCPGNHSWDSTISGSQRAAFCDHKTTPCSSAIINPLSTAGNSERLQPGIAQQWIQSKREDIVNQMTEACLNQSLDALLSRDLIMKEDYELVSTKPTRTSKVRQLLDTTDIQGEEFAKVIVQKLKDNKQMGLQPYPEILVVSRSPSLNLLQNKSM
Sequence of Focal adhesion kinase 1 (Homo sapiens) (Q05397 2-1052 limits assumed): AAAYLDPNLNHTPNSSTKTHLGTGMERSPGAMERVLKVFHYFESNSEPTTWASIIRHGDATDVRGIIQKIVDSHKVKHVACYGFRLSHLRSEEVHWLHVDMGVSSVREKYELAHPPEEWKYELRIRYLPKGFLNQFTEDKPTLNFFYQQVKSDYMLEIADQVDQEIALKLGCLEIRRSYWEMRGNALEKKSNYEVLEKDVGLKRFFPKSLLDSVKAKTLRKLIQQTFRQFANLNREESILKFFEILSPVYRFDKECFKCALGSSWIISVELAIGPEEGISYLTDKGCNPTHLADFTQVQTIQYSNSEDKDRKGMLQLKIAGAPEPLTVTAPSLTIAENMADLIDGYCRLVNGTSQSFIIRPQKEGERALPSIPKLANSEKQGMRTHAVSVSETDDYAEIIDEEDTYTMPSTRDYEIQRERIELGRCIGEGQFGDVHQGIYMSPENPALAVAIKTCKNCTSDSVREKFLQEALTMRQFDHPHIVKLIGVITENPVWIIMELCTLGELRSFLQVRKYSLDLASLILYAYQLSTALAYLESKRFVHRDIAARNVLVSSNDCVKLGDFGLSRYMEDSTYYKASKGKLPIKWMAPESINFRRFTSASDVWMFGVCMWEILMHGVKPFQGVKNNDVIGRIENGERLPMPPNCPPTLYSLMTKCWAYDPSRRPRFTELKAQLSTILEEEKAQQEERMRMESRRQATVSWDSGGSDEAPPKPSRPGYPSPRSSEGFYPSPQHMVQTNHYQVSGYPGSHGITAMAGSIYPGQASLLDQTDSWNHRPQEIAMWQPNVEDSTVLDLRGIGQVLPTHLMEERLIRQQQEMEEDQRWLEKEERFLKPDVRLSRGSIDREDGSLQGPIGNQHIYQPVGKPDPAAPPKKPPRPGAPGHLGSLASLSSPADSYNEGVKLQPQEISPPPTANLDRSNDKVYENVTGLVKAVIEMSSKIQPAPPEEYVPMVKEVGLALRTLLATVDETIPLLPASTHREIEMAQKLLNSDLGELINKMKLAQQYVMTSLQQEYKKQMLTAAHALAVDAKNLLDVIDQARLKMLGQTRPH

Compound	inhibition [1] [%]	inhibition [2] [%]	inhibition [3] [%]	inhibition [4] [%]	inhibition [5] [%]	inhibition [6] [%]	inhibition [7] [%]	inhibition [8] [%]	inhibition [9] [%]	inhibition [10] [%]	inhibition [11] [%]	inhibition [12] [%]	inhibition [13] [%]	inhibition [14] [%]	inhibition [15] [%]	inhibition [16] [%]
c1ccc2[nH]ncc2c1 [INDAZOLE]	1	0	81	21	37	75	0	0	0	6	15	80	25	5	3	12
Nc1ccc2ncc(-c3ccccc3)n2n1	68	36	97	86	96	90	69	25	70	86	57	93	66	32	33	39
c1ccc(-c2cnc3nccnn23)cc1	70	8	0	15	0	0	0	0	92	46	0	0	2	0	0	8
Nc1[nH]cnc2ncnc1-2	20	11	99	56	90	76	11	3	66	45	22	80	77	36	5	7
c1n[nH]c2c1CCCC2	14	25	22	26	27	27	2	0	13	24	0	25		3	1	13
Nc1[nH]nc2ccccc12	11	0	98	25	84	97	11	1	10	22	47	65	53	16	13	16
c1ccc(Nc2ccccc2)cc1	9	5		8	0	3		0	2	20	0	0	9	4	0	9
Nc1ncccc1OCc1ccccc1	100	9	77	51	40	52	94	21	100	59	0	64	35	17	6	25

The remaining lines, values ahead:

inhibition [1] [%]	inhibition [2] [%]	inhibition [3] [%]	inhibition [4] [%]	inhibition [5] [%]	inhibition [6] [%]	inhibition [7] [%]	inhibition [8] [%]	inhibition [9] [%]	inhibition [10] [%]	inhibition [11] [%]	inhibition [12] [%]	inhibition [13] [%]	inhibition [14] [%]	inhibition [15] [%]	inhibition [16] [%]	Compound
3	0	0	3	7	7	0	2	2	27	3	6	15	0	6	12	Cc1ccc(NC(=O)Nc2cc(C(C)(C)C)nn2-c2ccccc2)cc1
1	5	15	6	5	17	7	5	13	16	0	3	11	2	6	9	Cc1ccc(C(=O)NC2CC2)cc1F
6	4	12	0		8	0	0	7	10	0	8	8	5	6	6	O=C(Nc1ccccc1)Nc1cccc(C(F)(F)F)c1
12	18	100	36	92	63	10	9	20	29	65	46	40	7	7	14	Nc1n[nH]c2ncccc12
